Patent publication US20200131176A1, “SELECTIVE INHIBITORS OF CLINICALLY IMPORTANT MUTANTS OF THE EGFR TYROSINE KINASE” (CS Pharmatech Limited, priority 2017, published 2020)
Like-named read-outs stand apart in the source and are kept apart here.

Tests used:
INSR = target: T1, INSR (Homo sapiens, UniProt P06213); experiment: INSR inhibition assay (Caliper mobility shift); type: biochemical; conditions: enzyme assay
T1 construct: purchased CARNA BIOSCIENCE 08-142
Description: Test compound was dissolved in DMSO at 30 mM. […] 20 nL of these compounds DMSO dilutes were dispensed into a new 384-well assay plate by Echo 550. […] 15 μL of kinase assay buffer containing INSR protein and substrate was transferred to assay plate and incubate at RT for 30 minutes. Kinase assay buffer supplemented with substrate peptides was employed as low control to monitor the background. 40 μM ATP was prepared in kinase assay buffer containing and 5 μL of ATP solution was added to each well to start the reaction. The assay plate was incubated at 25° C. for 180 minutes and the reaction was stopped by adding 40 μL of 0.5 M EDTA.
The result was analyzed in the same manner as IGF-IR.

Mouse in vivo PK study [1] = conditions: male CD1 mice, 1 mg/kg IV
Description: To determine the drug concentration in plasma of the compounds of the present disclosure following intravenous and oral administration in male CD 1 Mice, pharmacokinetic profile and PK parameters were obtained.
Test animals: healthy male CD1 mice (body weight 20-30 g, 18 mice, free access to food and water), provided by Sibeifu laboratory. […]
Samples collection: the healthy animals were used, weighed the bodyweight and marked at tail and cage card prior to dosing. Blood samples (0.03 mL per time point) were collected from dorsal metatarsal vein at 0.083, 0.25, 0.5, 1, 2, 4, 8, 24 h post dose for IV group and at 0.25, 0.5, 1, 2, 4, 8, 24 h post dose for PO group, the terminal time point was collected from heart (˜0.3 mL). The blood samples were put into the tube with heparin-Na coated and then put on the cold box, centrifuged at 4° C. 4000 g, 5 minutes immediately after collecting all samples per time point to get plasma. The plasma samples were stored in a freezer at −75±15° C. prior to analysis.
The drug concentration was determined by LC/MS/MS method, and the PK parameters were observed as follows.

IGF-1R = target: T2, IGF-1R (Homo sapiens, UniProt P08069); experiment: IGF-1R inhibition assay (Caliper mobility shift); type: biochemical; conditions: enzyme assay
T2 construct: purchased CARNA BIOSCIENCE 08-141
T2 sequence (P08069 959-1367 limits assumed): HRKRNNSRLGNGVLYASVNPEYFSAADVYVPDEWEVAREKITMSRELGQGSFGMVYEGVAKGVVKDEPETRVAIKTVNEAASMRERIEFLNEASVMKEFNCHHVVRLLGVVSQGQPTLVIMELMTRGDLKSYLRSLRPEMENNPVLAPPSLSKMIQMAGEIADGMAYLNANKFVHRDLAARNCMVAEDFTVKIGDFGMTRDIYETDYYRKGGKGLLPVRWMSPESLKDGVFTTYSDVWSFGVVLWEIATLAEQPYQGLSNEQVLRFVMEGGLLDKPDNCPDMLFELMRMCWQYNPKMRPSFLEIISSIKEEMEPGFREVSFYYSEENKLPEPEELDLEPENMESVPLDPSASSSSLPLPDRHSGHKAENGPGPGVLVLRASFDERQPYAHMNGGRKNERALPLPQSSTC
Description: Test compound was dissolved in DMSO at 30 mM. […] 20 nL of these compounds DMSO dilutes were dispensed into a new 384-well assay plate by Echo 550. […] 15 μL of kinase assay buffer containing IGF-1R protein and substrate was transferred to assay plate and incubate at RT for 30 minutes. Kinase assay buffer supplemented with substrate peptides was employed as low control to monitor the background. 40 μM ATP was prepared in kinase assay buffer containing and 5 μL of ATP solution was added to each well to start the reaction. The assay plate was incubated at 25° C. for 180 minutes and the reaction was stopped by adding 40 μL of 0.5 M EDTA.
Phosphorylated fluorescent-tagged peptides were differentiated from non-phosphorylated peptides by separating using Caliper EZ Reader II and the detection was directly converted to conversion ratio.

[2] = test system: H1975 NSCLC cells xenograft (EGFR L858R/T790M double mutant); experiment: EGFR L858R/T790M double-mutant H1975 xenograft model; type: in vivo, nu/nu mice; conditions: day 10 after dosing; for Tumor Size: average ± SEM, n = 9
Description: Appropriately transformed cells, either from ATCC cell lines, known to carry the oncogene of interest, or from deliberate transfections, are suspended in appropriate media, and 5×10^6 or 1×10^7 cells are injected into the flank of nu/nu mice. Alternatively trochar placement of fragments of in vivo passaged tumors, usually about 1 mm^3 can be used to initiate the tumors. When tumors have reached an appropriate size for the experiment, usually in the 100-300 mg range, animals are randomized into matched groups of 6-10 mice, and tumor size and given vehicle or test article by perioral gavage once or twice daily. Tumor volumes are determined using calipers. The percentage increase in the volume of a xenograft tumor on day n versus day 0 (the day when dosing of the test compound began) is calculated as (tumor volume on day n−tumor volume on day 0/tumor volume on day 0)×100. The mean percentage of tumor growth inhibition in each drug-treated group relative to the vehicle-treated group is calculated as (1−mean percent increase of tumor volume in the drug-treated group/mean percent increase of the tumor volume in the vehicle-treated group)×100. Statistical significance is evaluated using a one-tailed t test.
Tumor size was measured on day 10 after dosing.

Mouse in vivo PK study [3] = conditions: mouse, plasma, male CD1 mice, 10 mg/kg PO
[4] = target: T3, Exon 19 deletion EGFR (activating single mutant) in PC-9 cells (Homo sapiens, UniProt P00533, DEL746-750); experiment: Exon 19 deletion EGFR PC-9 cellular autophosphorylation assay (p-EGFR ELISA); type: cell-based; conditions: PC9, 2 h treatment, read-out: SM (PC9) IC50
T3 construct: cellular phosphorylation of endogenous p-EGFR; host or cells: PC9 (PC-9) human lung cell line
T3 sequence (P00533 with tags, fused parts or gaps DEL746-750): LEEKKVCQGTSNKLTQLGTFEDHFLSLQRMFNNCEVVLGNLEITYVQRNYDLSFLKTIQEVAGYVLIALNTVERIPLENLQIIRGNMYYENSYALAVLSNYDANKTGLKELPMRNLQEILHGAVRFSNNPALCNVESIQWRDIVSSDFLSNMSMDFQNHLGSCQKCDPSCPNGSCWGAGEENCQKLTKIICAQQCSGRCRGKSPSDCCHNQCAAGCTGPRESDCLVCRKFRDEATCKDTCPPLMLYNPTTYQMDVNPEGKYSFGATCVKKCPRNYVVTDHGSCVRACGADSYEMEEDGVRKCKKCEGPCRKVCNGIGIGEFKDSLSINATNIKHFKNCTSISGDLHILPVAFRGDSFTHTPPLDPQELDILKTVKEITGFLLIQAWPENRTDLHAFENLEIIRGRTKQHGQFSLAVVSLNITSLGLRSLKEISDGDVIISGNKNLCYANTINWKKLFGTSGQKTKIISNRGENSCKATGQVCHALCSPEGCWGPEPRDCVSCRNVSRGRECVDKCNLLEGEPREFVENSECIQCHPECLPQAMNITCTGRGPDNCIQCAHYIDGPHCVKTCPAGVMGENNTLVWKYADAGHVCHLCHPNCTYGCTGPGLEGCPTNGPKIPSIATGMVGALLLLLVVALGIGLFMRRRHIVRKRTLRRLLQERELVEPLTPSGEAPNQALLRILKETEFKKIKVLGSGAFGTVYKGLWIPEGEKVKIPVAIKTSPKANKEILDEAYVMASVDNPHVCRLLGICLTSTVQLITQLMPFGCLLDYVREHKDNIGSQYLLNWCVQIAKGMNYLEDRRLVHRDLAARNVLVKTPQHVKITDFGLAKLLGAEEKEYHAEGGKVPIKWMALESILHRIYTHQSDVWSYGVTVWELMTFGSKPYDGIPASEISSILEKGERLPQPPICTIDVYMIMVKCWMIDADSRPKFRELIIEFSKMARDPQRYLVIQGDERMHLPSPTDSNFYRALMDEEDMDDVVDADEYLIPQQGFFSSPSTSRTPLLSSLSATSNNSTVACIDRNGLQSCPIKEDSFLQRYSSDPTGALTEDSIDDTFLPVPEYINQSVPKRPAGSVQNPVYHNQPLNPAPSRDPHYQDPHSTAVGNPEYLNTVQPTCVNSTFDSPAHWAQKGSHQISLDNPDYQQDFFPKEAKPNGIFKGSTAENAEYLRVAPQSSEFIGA
Description: The human lung cell line PC9 (Exon 19 deletion EGFR) were obtained from the American type Culture Collection. […] Cells were grown in a humidified incubator at 37° C. with 5% CO2, Assays to measure cellular phosphorylation of endogenous p-EGFR in cell Iysates were carried out according to the protocol described in the R&D Systems DuoSet IC Human Phospho-EGF R ELISA (R&D Systems catalogue number # DYCI095). 40 μL of cells were seeded (10000 cells/well) in growth medium in Coming black, clear-bottomed 384-well plates and incubated at 37° C. with 5% CO2 overnight. […] Plates were incubated for a further 2 h, then following aspiration of medium, 40 μL× lysis buffer is added to each well. Greiner black high bind 384 well plates were coated with capture antibody and then blocked with 3% BSA. Following removal of block, 15 μL of lysate are transferred to the Greiner black high bind 384 well plates and incubated for 2 hours. Following aspiration and washing of the plates with PBS, 20 μL of detection antibody were added and incubated for 2 hours. […] The data obtained with each compound are exported into a suitable software package (such as Origin) to perform curve fitting analysis.

H1975 cells = experiment: H1975 inhibition assay (cell proliferation, CellTiter-Glo, 72 h); type: cell-based, human; conditions: Homo sapiens, NCI-H1975, 72 h, cellular proliferation, double mutant EGFR, read-out: NCI-H1975 IC50 (nM) DM
Description: H1975 Inhibition Assay (Cell Proliferation).
(§1) Test compounds were dissolved in DMSO at 30 mM.
(§2) The final concentration was 1,000 cells/well. Add medium only as low control.
(§3) After 72 hours incubation, remove the plates from incubator and equilibrate at room temperature for 15 minutes. Incubate the CellTiter Glo reagents (Promega, G9243) at 37° C. before the experiment. The buffer was equilibrated to room temperature and used to dissolve the substrate. To determine the cell viability, add 40 μL of CellTiter-Glo reagent into each well to be detected (at 1:1 to culture medium). Then the place the plates at room temperature for 30 min followed by read on EnSpire (PerkinElmer).
(§4) For estimation of IC50, the luminescence readout are transformed to % Inhibition by applying the following equation:

[5] = target: T4, L858R/T790M double mutant EGFR in H1975 cells (Homo sapiens, UniProt P00533, L858R/T790M); experiment: L858R/T790M double mutant H1975 autophosphorylation inhibition assay (ELISA); type: cell-based; conditions: cellular EGFR autophosphorylation, H1975, 2 h treatment; read-out: DM (H1975) IC50
T4 construct: endogenous in cells; host or cells: H1975 cells

[6] = target: hERG channel (HEK 293 cell line stably expressing hERG channel) (Homo sapiens, UniProt Q12809); experiment: cell-based
hERG channel (HEK 293 cell line stably expressing hERG channel), sequence (Q12809 whole entry): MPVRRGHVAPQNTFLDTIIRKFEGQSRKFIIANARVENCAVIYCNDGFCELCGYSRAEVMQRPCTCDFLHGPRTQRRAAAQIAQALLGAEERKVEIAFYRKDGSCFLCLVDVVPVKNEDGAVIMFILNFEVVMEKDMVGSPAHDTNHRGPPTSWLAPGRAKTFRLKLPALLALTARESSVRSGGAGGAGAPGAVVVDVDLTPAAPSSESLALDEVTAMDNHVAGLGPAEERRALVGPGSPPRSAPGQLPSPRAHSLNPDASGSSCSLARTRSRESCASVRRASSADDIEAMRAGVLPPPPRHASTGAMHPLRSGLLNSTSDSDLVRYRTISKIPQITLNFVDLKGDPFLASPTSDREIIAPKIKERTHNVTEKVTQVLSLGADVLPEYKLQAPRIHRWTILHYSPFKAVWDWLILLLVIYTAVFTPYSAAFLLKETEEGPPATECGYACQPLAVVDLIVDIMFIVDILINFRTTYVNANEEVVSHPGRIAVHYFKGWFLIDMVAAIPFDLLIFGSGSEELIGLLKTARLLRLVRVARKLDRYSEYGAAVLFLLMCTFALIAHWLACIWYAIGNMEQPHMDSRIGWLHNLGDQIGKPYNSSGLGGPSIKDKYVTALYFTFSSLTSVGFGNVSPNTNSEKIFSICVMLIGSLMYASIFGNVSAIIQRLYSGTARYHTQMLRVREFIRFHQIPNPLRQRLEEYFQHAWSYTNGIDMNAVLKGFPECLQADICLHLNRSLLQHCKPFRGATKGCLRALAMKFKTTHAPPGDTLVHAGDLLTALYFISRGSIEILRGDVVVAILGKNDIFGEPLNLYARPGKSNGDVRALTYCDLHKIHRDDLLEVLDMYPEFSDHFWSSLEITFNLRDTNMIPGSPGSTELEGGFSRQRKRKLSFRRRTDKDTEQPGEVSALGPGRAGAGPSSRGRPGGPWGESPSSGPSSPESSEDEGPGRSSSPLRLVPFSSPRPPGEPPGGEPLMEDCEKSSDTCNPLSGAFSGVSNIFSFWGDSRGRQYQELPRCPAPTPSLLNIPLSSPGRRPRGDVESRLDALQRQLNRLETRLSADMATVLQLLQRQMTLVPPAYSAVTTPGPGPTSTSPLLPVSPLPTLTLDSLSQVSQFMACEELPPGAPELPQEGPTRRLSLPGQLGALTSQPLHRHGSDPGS

A431 cells = experiment: A431 inhibition assay (cell proliferation, CellTiter-Glo, 72 h); type: cell-based, human; conditions: Homo sapiens, A-431, 72 h, cellular proliferation, wild type EGFR, read-out: A431 IC50 (nM) WT
Description: (§5) Then incubate the flasks at 37° C. until the cells detach.
as §1, §2, §3, §4

[7] = target: Wild type EGFR in A431 cells (Homo sapiens, UniProt P00533); conditions: WT (A431) IC50 nM, cellular EGFR autophosphorylation, A431, 2 h treatment then EGF stimulation 10 min
Wild type EGFR in A431 cells, sequence (P00533 25-1210): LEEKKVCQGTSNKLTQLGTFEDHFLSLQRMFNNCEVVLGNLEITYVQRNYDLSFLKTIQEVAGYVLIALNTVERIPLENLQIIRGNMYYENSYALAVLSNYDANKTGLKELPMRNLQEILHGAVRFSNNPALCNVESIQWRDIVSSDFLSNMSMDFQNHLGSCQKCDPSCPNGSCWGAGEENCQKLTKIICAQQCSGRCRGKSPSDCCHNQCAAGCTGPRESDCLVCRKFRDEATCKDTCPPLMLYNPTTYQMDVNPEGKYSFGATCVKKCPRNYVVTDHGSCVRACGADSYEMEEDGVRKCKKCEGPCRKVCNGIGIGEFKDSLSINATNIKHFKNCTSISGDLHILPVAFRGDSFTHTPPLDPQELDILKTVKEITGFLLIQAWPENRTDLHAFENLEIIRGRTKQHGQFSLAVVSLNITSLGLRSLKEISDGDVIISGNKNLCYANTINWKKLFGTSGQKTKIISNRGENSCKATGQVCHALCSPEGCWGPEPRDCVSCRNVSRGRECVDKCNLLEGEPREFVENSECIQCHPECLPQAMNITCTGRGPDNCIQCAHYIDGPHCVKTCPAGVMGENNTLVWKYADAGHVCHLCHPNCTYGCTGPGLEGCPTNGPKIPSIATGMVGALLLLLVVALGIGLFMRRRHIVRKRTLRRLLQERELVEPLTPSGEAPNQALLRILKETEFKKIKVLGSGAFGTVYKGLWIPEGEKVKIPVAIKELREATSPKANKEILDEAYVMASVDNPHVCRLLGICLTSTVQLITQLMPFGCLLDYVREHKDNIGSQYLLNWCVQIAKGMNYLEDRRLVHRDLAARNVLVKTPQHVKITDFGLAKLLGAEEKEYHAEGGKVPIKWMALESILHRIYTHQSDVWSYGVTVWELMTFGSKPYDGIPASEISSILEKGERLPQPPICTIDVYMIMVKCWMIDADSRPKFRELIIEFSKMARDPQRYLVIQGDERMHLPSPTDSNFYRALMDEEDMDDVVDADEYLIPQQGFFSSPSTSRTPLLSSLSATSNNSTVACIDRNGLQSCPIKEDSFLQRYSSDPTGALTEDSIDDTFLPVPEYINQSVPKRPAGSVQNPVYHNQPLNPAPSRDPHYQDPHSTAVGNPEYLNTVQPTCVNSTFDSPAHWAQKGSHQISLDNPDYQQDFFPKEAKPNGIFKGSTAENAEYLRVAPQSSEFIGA

PC-9 cells = experiment: PC-9 growth inhibition assay (cell proliferation, CellTiter-Glo, 72 h); type: cell-based, human; conditions: Homo sapiens, PC-9, 72 h, cellular proliferation, PC9 cells, single mutant EGFR, read-out: PC9 IC50 (nM) SM
Description: as §5, §1, §2, §3, §4

T1 sequence (P06213 1005-1382 limits assumed): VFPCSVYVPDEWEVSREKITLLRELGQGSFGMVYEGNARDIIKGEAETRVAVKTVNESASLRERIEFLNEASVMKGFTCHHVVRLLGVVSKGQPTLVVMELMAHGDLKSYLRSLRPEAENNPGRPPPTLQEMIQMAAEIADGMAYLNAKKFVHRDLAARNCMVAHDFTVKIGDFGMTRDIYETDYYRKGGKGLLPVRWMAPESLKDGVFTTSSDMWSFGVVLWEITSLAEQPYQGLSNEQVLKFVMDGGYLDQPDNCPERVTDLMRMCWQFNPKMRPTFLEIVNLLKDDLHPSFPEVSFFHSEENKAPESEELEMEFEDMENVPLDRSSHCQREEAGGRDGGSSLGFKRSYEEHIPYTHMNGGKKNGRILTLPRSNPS

C=CC(=O)Nc1cc(Nc2nccc(-n3nc(N(C)C)c4cc(Cl)sc43)n2)c(OC)cc1N(C)CCN(C)C [Example 6, N-(5-((4-(5-Chloro-3-(dimethylamino)-1H-thieno[2,3-c]pyrazol-1-yl)pyrimidin-2-yl)amino)-2-((2-(dimethylamino)ethyl)(methyl)amino)-4-methoxyphenyl)acrylamide]
IC50 (INSR): 2310 nM | F (Mouse in vivo PK study [1]; 10 mg/kg PO): 46.7% | AUC (Mouse in vivo PK study [1]; mouse, plasma): 168 ng·h/mL | clearance (Mouse in vivo PK study [1]; mouse, plasma): 100 mL/min/kg | half-life (Mouse in vivo PK study [1]; mouse, plasma, read-out: T1/2 (IV) (converted)): 0.92 h | IC50 (IGF-1R): 2090 nM | TGI (tumor growth inhibition) ([2]; 5 mg/kg): 99.56% | TRTV/CRTV (relative tumor volume) ([2]; 5 mg/kg): 17.49% | Tumor Size ([2]; 5 mg/kg): 203 ± 24 mm^3 | TGI (tumor growth inhibition) ([2]; 15 mg/kg): 114.04% | TRTV/CRTV (relative tumor volume) ([2]; 15 mg/kg): 5.34% | Tumor Size ([2]; 15 mg/kg): 63 ± 30 mm^3 | TGI (tumor growth inhibition) ([2]; 30 mg/kg): 117.41% | TRTV/CRTV (relative tumor volume) ([2]; 30 mg/kg): 2.42% | Tumor Size ([2]; 30 mg/kg): 28 ± 9 mm^3 | AUC (Mouse in vivo PK study [3]): 784 ng·h/mL | Cmax (Mouse in vivo PK study [3]): 117 ng/mL | half-life (Mouse in vivo PK study [3]; read-out: T1/2 (PO) (converted)): 2.67 h | IC50 [4]: 8.35 nM | IC50 (H1975 cells): 2.6 nM | IC50 [5]: 7.52 nM | IC50 [6]: 2550 nM | IC50 (A431 cells): 1090 nM | IC50 [7]: 72.5 nM | IC50 (PC-9 cells): 1.82 nM
